Test results taken from patent US12060347B2 (BRISTOL-MYERS SQUIBB COMPANY, priority 2016, dated 2024).

Target: T1, human PAR4 (Homo sapiens, UniProt Q96RI0)
T1 construct: expressed in transfected cells; host or cells: HEK293 PAR4 Clone 1.2A (BMS Arctic ID 383940)
T1 sequence (Q96RI0 18-385): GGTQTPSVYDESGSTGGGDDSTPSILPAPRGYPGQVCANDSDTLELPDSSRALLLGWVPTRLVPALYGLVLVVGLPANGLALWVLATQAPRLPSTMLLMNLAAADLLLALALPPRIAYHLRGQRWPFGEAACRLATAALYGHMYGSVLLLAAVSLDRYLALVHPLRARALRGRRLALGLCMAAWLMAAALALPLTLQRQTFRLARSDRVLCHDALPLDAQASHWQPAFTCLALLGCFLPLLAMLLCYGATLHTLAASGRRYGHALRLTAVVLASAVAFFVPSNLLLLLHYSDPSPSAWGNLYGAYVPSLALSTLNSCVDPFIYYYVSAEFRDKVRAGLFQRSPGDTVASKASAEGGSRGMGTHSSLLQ
Assay: PAR4 FLIPR assay: antagonism of agonist-peptide-induced calcium mobilization in PAR4-expressing HEK293 cells
Type: cell-based
Conditions: H-Ala-Phe(4-F)-[…]NH2-induced intracellular calcium mobilization, 11-point curves

Structure (SMILES) | IC50
Cc1cc(-c2nc3c(C)cc(OCCNS(=O)(=O)c4ccc(C(F)(F)F)cc4)cc3s2)c2ncc(OC(F)F)nc2c1 [Example 83, N-(2-(2-(2-(difluoromethoxy)-7-methylquinoxalin-5-yl)-4-methylbenzo[d]thiazol-6-yloxy)ethyl)-4-(trifluoromethyl)benzenesulfonamide] | 11 nM
COCc1cnc2c(-c3nc4c(Cl)cc(Cl)cc4s3)cc(C)cc2n1 [Example 275, 4,6-dichloro-2-(2-(methoxymethyl)-7-methylquinoxalin-5-yl)benzo[d]thiazole] | 0.9 nM
COc1cnc2c(-c3nc4cc(F)c(O[C@@H](C)[C@@H](C)OC(=O)Nc5ccc(OCCO)nc5)nc4s3)cc(Cl)cc2c1 [Example 779, (2R,3S)-3-((2-(6-chloro-3-methoxyquinolin-8-yl)-6-fluorothiazolo[5,4-b]pyridin-5-yl)oxy) butan-2-yl (6-(2-hydroxyethoxy)pyridin-3-yl)carbamate] | 3.3 nM
COc1cnc2c(-c3nc4cc(F)c(O[C@@H](C)[C@@H](C)OC(=O)Nc5cnc(OCCO)nc5)cc4s3)cc(Cl)cc2c1 [Example 512, (2R,3S)-3-((2-(6-chloro-3-methoxyquinolin-8-yl)-5-fluorobenzo[d]thiazol-6-yl)oxy)butan-2-yl (2-(2-hydroxyethoxy)pyrimidin-5-yl)carbamate] | 1.2 nM
COCc1cnc2c(-c3nc4c(Cl)cccc4s3)cc(C)cc2n1 [Example 260, 4-chloro-2-(2-(methoxymethyl)-7-methylquinoxalin-5-yl)benzo[d]thiazole] | 4.8 nM
COCc1cnc2c(-c3nc4ccc(OC)cc4s3)cc(Cl)cc2n1 [Example 202, 2-(7-chloro-2-(methoxymethyl)quinoxalin-5-yl)-6-methoxybenzo[d]thiazole] | 0.9 nM
COC(=O)c1cnc2c(-c3cc4ccccc4o3)cc(C)cc2n1 [Example 176, methyl 5-(benzofuran-2-yl)-7-methylquinoxaline-2-carboxylate] | 980 nM

Next, values leading:

IC50 | Structure (SMILES)
4.3 nM | COc1cnc2c(-c3nc4c(Cl)c(F)c(OC[C@@H](C)OC(=O)Nc5ccc(C)nc5)cc4s3)cc(C)cc2n1 [Example 377, (R)-1-((4-chloro-5-fluoro-2-(2-methoxy-7-methylquinoxalin-5-yl)benzo[d]thiazol-6-yl)oxy)propan-2-yl (6-methylpyridin-3-yl)carbamate]
0.8 nM | COc1cnc2c(-c3nc4cc(F)c(O[C@@H](C)[C@@H](C)OC(=O)Nc5ccc(OCCO)nc5)nc4s3)cc(C)cc2n1 [Example 725, (2R,3S)-3-((6-fluoro-2-(2-methoxy-7-methylquinoxalin-5-yl)thiazolo[5,4-b]pyridin-5-yl)oxy)butan-2-yl (6-(2-hydroxyethoxy)pyridin-3-yl)carbamate]
5.3 nM | COc1cnc2c(-c3nc4c(C)cc(OC[C@@H](C)OC(=O)Nc5cnc(Cl)nc5)nc4s3)cc(C)cc2n1 [Example 736, (R)-1-((2-(2-methoxy-7-methylquinoxalin-5-yl)-7-methylthiazolo[5,4-b]pyridin-5-yl)oxy) propan-2-yl (2-chloropyrimidin-5-yl)carbamate]
0.5 nM | COc1cnc2c(-c3nc4cc(F)c(OC[C@@H](C)OC(=O)Nc5cnc(C(N)=O)nc5)cc4s3)cc(C)cc2n1 [Example 429, (R)-1-((5-fluoro-2-(2-methoxy-7-methylquinoxalin-5-yl)benzo[d]thiazol-6-yl)oxy)propan-2-yl (2-carbamoylpyrimidin-5-yl)carbamate]
2.2 nM | COc1cnc2c(-c3nc4cc(F)c(O[C@@H](C)[C@@H](C)OC(=O)Nc5cnc(OC)c(C)c5)cc4s3)cc(C)cc2n1 [Example 422, (2R,3S)-3-((5-fluoro-2-(2-methoxy-7-methylquinoxalin-5-yl)benzo[d]thiazol-6-yl)oxy)butan-2-yl (6-methoxy-5-methylpyridin-3-yl)carbamate]
